Assay results from patent US10709711B2 (G1 Therapeutics, Inc., priority 2013, dated 2020).

Tests used:
[1] = tested on: SupT1 cells (human T-cell lymphoblastic leukemia); experiment: Inhibition of cellular proliferation, SupT1 cells (CellTiter-Glo); format: cell-based; settings: SUP-T1, 96 h, cell viability after four days, nine point dilution series 10 uM to 1 nM
Protocol: (§1) The SupT1 cells were seeded in Costar (Tewksbury, Mass.) 3093 96 well tissue culture treated white walled/clear bottom plates. A nine point dose response dilution series from 10 uM to 1 nM was performed and cell viability was determined after four days as indicated using the CellTiter-Glo® assay (CTG; Promega, Madison, Wis., United States of America) following the manufacturer's recommendations. Plates were read on a BioTek (Winooski, Vt.) Syngergy2 multi-mode plate reader. The Relative Light Units (RLU) were plotted as a result of variable molar concentration and data was analyzed using Graphpad (LaJolla, Calif.) Prism 5 statistical software to determine the IC50 for each compound.
(§2) The compounds listed in Table 1 were tested for the inhibition of cellular proliferation using SupT1 (human T-cell lymphoblastic leukemia) and Daudi (human B-lymphoblastoid cell from Burkitt's Lymphoma patient).

[2] = tested on: Daudi (human B-lymphoblastoid cell from Burkitt's Lymphoma patient); experiment: Inhibition of cellular proliferation, Daudi cells (CellTiter-Glo); format: cell-based; settings: EC50 measured as illustrated in Example 150 (CellTiter-Glo)
Protocol: as §1, §2

| Compound | EC50 [1] [µM] | EC50 [2] [µM] |
| --- | --- | --- |
| O=C1NCC2(CCCCC2)n2c1cc1cnc(Nc3ccc(N4CCC(N5CCC(C(F)(F)F)CC5)CC4)cn3)nc12 [X] | 0.036 | 0.318 |
| CCC(C)[C@@H]1CNC(=O)c2cc3cnc(Nc4ccc(N5CCNCC5)cn4)nc3n21 (some centres unmarked) [VVV] | 0.224 | 1.07 |
| CC(C)N1CCN(Cc2ccc(Nc3ncc4cc5n(c4n3)C3(CCCCC3)CNC5=O)nc2)CC1 [EE] | 0.089 | 0.259 |
| CC(C)[C@H]1CNC(=O)c2cc3cnc(Nc4ccc(N5CCNCC5)cn4)nc3n21 [UUU] | 0.311 | 1.43 |

More lines, now with the values ahead:

| EC50 [1] [µM] | EC50 [2] [µM] | Compound |
| --- | --- | --- |
| 0.133 | 1.86 | CC(C)(C)CCN1CCN(c2ccc(Nc3ncc4cc5n(c4n3)C3(CCCC3)CNC5=O)nc2)CC1(C)C [CCC] |
| 0.11 | 0.634 | C[C@@H](O)CN1CCN(c2ccc(Nc3ncc4cc5n(c4n3)C3(CCCCC3)CNC5=O)nc2)CC1 [S] |
| 0.057 | 0.731 | CC1CN(c2ccc(Nc3ncc4cc5n(c4n3)C3(CCCCC3)CNC5=O)nc2)CCN1CC(C)(C)O (centres unmarked) [W] |
| 0.272 | 0.584 | CN1CCN(c2ccc(Nc3ncc4cc5n(c4n3)C3(CCCC3)CNC5=O)nc2)CC1 [ZZ] |
| 0.034 | 0.122 | O=C1NCC2(CCCCC2)n2c1cc1cnc(Nc3ccc(N4CCC(N5CCCCC5)CC4)cn3)nc12 [N] |
| 0.084 | 1.04 | C[C@@H]1CN(c2ccc(Nc3ncc4cc5n(c4n3)C3(CCCCC3)CNC5=O)nc2)CCN1C [NN] |
